Source: patent US6689767B2, “Triterpenes having antibacterial activity” (Regents of the University of Minnesota, priority 2000, dated 2004)
≈ marks a conversion by molar mass, not a printed value.

Experiments:
[1] = test system: Escherichia coli; experiment: Kirby-Bauer disk diffusion growth inhibition, Escherichia coli; format: cell-based; settings: for zone of inhibition at 0.125 µg/mL: Escherichia coli, read-out: Zone of inhibition Escherichia coli; for zone of inhibition at 0.125 µg/mL / Zone of inhibition Escherichia coli: 100 μl on 10 mm disk, 18 hours 37° C.; for Active against: Table 1 summary, E. coli; for effectiveness against E. Coli: Tables 1a and 1b
Procedure: (§1) The compounds disclosed herein were tested for growth inhibition against four strains of bacteria: Escherichia coli, Staphylococcus aureus, methicillin-resistant Staphylococcus aureus, and Bacillus subtilis. […] They represent […]. E. coli is a gram-negative, non-spore forming, rod-shaped, opportunistic pathogen that resides in the human digestive tract. S. aureus is a gram positive coccus, is usually found morphologically as a […], and is an opportunistic human pathogen, often residing on or in the skin. B. subtilis is a gram positive spore-forming rod. Its native environment is the soil. The chemicals were tested for growth-inhibition of the bacteria by the Kirby-Bauer method. See, e.g., Microbiology, third edition; Lansing M. Prescott, John P. Harley, and Donald A. Klein; Wm. C. Brown Publishers.
(§2) Mueller-Hinton agar (Difco Lab, Michigan) was prepared according to the manufacturer's directions, and 20 ml was dispensed in each sterile petri dish. Sterile nutrient broth (Difco Lab, Michigan) was also prepared according to the manufacturer's directions.
(§3) Bacteria were grown in liquid nutrient broth for 18 hours at 37° C. until they were turbid.
(§4) An aliquot of 0.5 ml of cultured bacteria was aseptically transferred to the surface of a Mueller-Hinton agar plat, and spread using a cotton-tipped swab. Plates were then allowed to dry for 5 minutes. Then a 10 mm diameter filter paper disk impregnated with the test chemical was placed with sterile forceps on the plate. The disks were impregnated with 100 μl of a solution of the test compound in DMSO or in water, at the indicated concentrations in Table 1.
(§5) The zones of inhibition were measured after 18 hours growth at 37° C. Tests were done in triplicate.
(§6) Additional compounds were tested for activity against E. coli, laboratory strain S. aureus (not methicillin resistant), and B. subtilis. The compounds were tested by the disk diffusion method, as in Example 1, with application of a 10 mg/mil solution of the test compound in DMSO.

[2] = test system: Staphylococcus aureus; experiment: Kirby-Bauer disk diffusion growth inhibition, Staphylococcus aureus; format: cell-based; settings: 100 μl on 10 mm disk, 18 hours 37° C.; for zone of inhibition at 0.125 µg/mL: Staphylococcus aureus, read-out: Zone of inhibition Staphylococcus aureus
Procedure: as §1, §2, §3, §4, §5, §6
Derivatives of lupeol were tested for inhibition of bacterial growth using the Kirby-Bauer disk diffusion method and by growth in liquid culture. For the disk diffusion method, compounds were dissolved in DMSO and 100 μl was added to the 10 mm filter paper disk. The amount of compound applied to the disk varied. The amount applied for each compound was as follows: lupeol (50 μg), lupeol-3-maleate (15 μg), lupeol-3-thiodiglycolate (15 μg), lupeol-3-dimethyl succinate (60 μg), lupeol-3-phosphate (30 μg), lupenone (50 μg), lupenon-3-oxime (50 μg), lupeol-3-amine (50 μg), lupenon-1,2-ene-2-ol (50 μg). In liquid culture, the compounds were dissolved in DMSO at 1 mg/ml and then 100 μl was added to 7 ml of sterile broth, along with a 1/200 dilution of freshly grown bacterial liquid culture.

[3] = test system: Bacillus subtilis; experiment: Kirby-Bauer disk diffusion growth inhibition, Bacillus subtilis; format: cell-based; settings: 100 μl on 10 mm disk, 18 hours 37° C.; for zone of inhibition at 0.125 µg/mL: Bacillus subtilis, read-out: Zone of inhibition Bacillus subtilis
Procedure: as §1, §2, §3, §4, §5, §6

[4] = test system: E. Coli; experiment: Minimum inhibitory concentration in tryptic soy broth, E. coli; format: cell-based, Escherichia coli; settings: 24 hours 37° C., turbidity
Procedure: Sterile tryptic soy broth was prepared according to the manufacturer's instructions (Difco Lab, Michigan). To each tube containing 7 ml of broth, test compounds dissolved in DMSO were added at different concentrations in triplicate. The tubes were incubated for 24 hours at 37° C. and then turbidity was measured using a […]. The colorimeter was calibrated with sterile broth. The MIC was the lowest concentration that could prevent an increase in turbidity.

[5] = test system: bacteria; experiment: Summary statements over the antibacterial assays above; format: cell-based; settings: summary list

SMILES	melting point	zone of inhibition at 0.125 µg/mL ([1]; 125 ng/ml in water) [mm]	zone of inhibition at 0.125 µg/mL ([2]; 125 ng/ml in water) [mm]	zone of inhibition at 0.125 µg/mL ([3]; 125 ng/ml in water) [mm]	Zone of inhibition Escherichia coli ([1]; 10 mg/ml in DMSO) [mm]	Active against [1]	effectiveness against E. Coli [1]	Zone of inhibition Staphylococcus aureus ([2]; 10 mg/ml in DMSO) [mm]	Zone of inhibition Bacillus subtilis ([3]; 10 mg/ml in DMSO) [mm]	MIC [4] [µM]	active against at least one strain of bacteria in the assays above [5]	Zone of inhibition Escherichia coli ([1]; 125 ng/ml in water) [mm]	Zone of inhibition Staphylococcus aureus ([2]; 125 ng/ml in water) [mm]	Zone of inhibition Bacillus subtilis ([3]; 125 ng/ml in water) [mm]	MIC ([4]; Escherichia coli) [µM]
CC(=O)OC1CC[C@@]2(C)C(CC[C@]3(C)C2CCC2C4C5OC(=O)C4(CCC5(C)C)CC[C@@]23C)C1(C)C (some centres unmarked) [Allobetulin lactone-3-acetate, 3-O-acetyl allobetulin-lactone]	312.5 to 315.4 °C (dec.)														
CC1(C)CCC23CC[C@@]4(C)C(CCC5[C@@]6(C)C=C(O)C(=O)C(C)(C)C6CC[C@]54C)C2C1OC3=O (some centres unmarked) [Allobetulon-lactone-1-ene-2-ol, allobetulon lactone-1-ene-2-ol]	238.8 to 243.6 °C	0	0	0											
C=C(C)[C@@H]1CC[C@]2(COC(=O)COCC(=O)O)CC[C@]3(C)[C@H](CC[C@@H]4[C@@]5(C)CC[C@H](OC(=O)COCC(=O)O)C(C)(C)[C@@H]5CC[C@]43C)[C@@H]12 [Betulin 3,28-didiglycolate, Betulin-3,28-didiglycolate]					0	E. coli	effective	0	0	0.282 (≈ 0.19 µg/mL)	active against at least one strain of bacteria				
C=C(C)[C@@H]1CC[C@]2(COC(=O)CCCC(=O)O)CC[C@]3(C)[C@H](CC[C@@H]4[C@@]5(C)CC[C@H](OC(=O)CCCC(=O)O)C(C)(C)[C@@H]5CC[C@]43C)[C@@H]12 [Betulin 3,28-diglutarate, Betulin-3,28-diglutarate]					0	E. coli	effective	0	0	0.282 (≈ 0.189 µg/mL)	active against at least one strain of bacteria	12.0	0	0	
C=C(C)C1CCC2(COP(=O)(O)O)CC[C@@]3(C)C(CCC4[C@@]5(C)CCC(OP(=O)(O)O)C(C)(C)C5CC[C@]43C)C12 (some centres unmarked) [Betulin 3,28-diphosphate, Betulin-3,28-diphosphate]		11	0	0		E. coli	effective				active against at least one strain of bacteria				0.282 (≈ 0.17 µg/mL)
